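Growth conditions: 96-well plates. Treatment: test compound, 48 hours, 5 concentrations. Analysis: linear interpolation between bracketing concentrations; unreached endpoints set to highest concentration. GI50 = concentration required for 50% inhibition of growth. TGI: total growth inhibition.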
Legend:
Assay in all cases: NCI anticancer screen, dose series, 48 h
LOX IMVI melanoma = tested on: LOX IMVI melanoma
UACC-62 melanoma = tested on: UACC-62 melanoma
SK-MEL-2 melanoma = tested on: SK-MEL-2 melanoma
SK-MEL-28 melanoma = tested on: SK-MEL-28 melanoma
NCI-H226 lung = tested on: NCI-H226 lung
M14 melanoma = tested on: M14 melanoma
IGROV1 ovarian = tested on: IGROV1 ovarian
MALME-3M melanoma = tested on: MALME-3M melanoma
OVCAR-8 ovarian = tested on: OVCAR-8 ovarian
NCI-H460 lung = tested on: NCI-H460 lung
RXF 393 renal = tested on: RXF 393 renal
OVCAR-5 ovarian = tested on: OVCAR-5 ovarian
MOLT-4 leukemia = tested on: MOLT-4 leukemia
NCI/ADR-RES ovarian = tested on: NCI/ADR-RES ovarian
HT29 colon = tested on: HT29 colon
A549 NSCLC = tested on: A549 NSCLC
MCF7 breast = tested on: MCF7 breast
MDA-MB-435 = tested on: MDA-MB-435
RPMI-8226 leukemia = tested on: RPMI-8226 leukemia
EKVX NSCLC = tested on: EKVX NSCLC
SF-295 CNS = tested on: SF-295 CNS
TK-10 renal = tested on: TK-10 renal
UO-31 renal = tested on: UO-31 renal
BT-549 breast = tested on: BT-549 breast
HL-60(TB) leukemia = tested on: HL-60(TB) leukemia
COLO 205 colon = tested on: COLO 205 colon
HS 578T breast = tested on: HS 578T breast
SK-MEL-5 melanoma = tested on: SK-MEL-5 melanoma
HOP-62 NSCLC = tested on: HOP-62 NSCLC
SW-620 colon = tested on: SW-620 colon
U251 CNS = tested on: U251 CNS
HCT-15 colon = tested on: HCT-15 colon
SR leukemia = tested on: SR leukemia
HCT-116 colon = tested on: HCT-116 colon
ACHN renal = tested on: ACHN renal
MDA-MB-231 breast = tested on: MDA-MB-231 breast
KM12 colon = tested on: KM12 colon
UACC-257 melanoma = tested on: UACC-257 melanoma
SK-OV-3 ovarian = tested on: SK-OV-3 ovarian
A498 renal = tested on: A498 renal
MDA-MB-468 breast = tested on: MDA-MB-468 breast
CCRF-CEM leukemia = tested on: CCRF-CEM leukemia
786-0 renal = tested on: 786-0 renal
DU-145 prostate = tested on: DU-145 prostate
SF-539 CNS = tested on: SF-539 CNS
HCC-2998 colon = tested on: HCC-2998 colon
PC-3 prostate = tested on: PC-3 prostate
CAKI-1 renal = tested on: CAKI-1 renal
SN12C renal = tested on: SN12C renal
NCI-H522 lung = tested on: NCI-H522 lung
NCI-H23 lung = tested on: NCI-H23 lung
SNB-19 CNS = tested on: SNB-19 CNS
SF-268 CNS = tested on: SF-268 CNS
OVCAR-4 ovarian = tested on: OVCAR-4 ovarian
K-562 leukemia = tested on: K-562 leukemia
OVCAR-3 ovarian = tested on: OVCAR-3 ovarian

SMILES: COc1cc(OC)cc(-c2cc3ccc(N(C)C)cc3c(=O)[nH]2)c1
- GI50 (LOX IMVI melanoma): 19 nM
- TGI (LOX IMVI melanoma): > 100000 nM
- GI50 (UACC-62 melanoma): < 10 nM
- TGI (UACC-62 melanoma): > 100000 nM
- GI50 (SK-MEL-2 melanoma): 25.6 nM
- TGI (SK-MEL-2 melanoma): > 100000 nM
- GI50 (SK-MEL-28 melanoma): 42.2 nM
- TGI (SK-MEL-28 melanoma): > 100000 nM
- GI50 (NCI-H226 lung): 219 nM
- TGI (NCI-H226 lung): > 100000 nM
- GI50 (M14 melanoma): < 10.6 nM
- TGI (M14 melanoma): > 48200 nM
- GI50 (IGROV1 ovarian): 44.6 nM
- TGI (IGROV1 ovarian): > 100000 nM
- GI50 (MALME-3M melanoma): 24 nM
- TGI (MALME-3M melanoma): > 100000 nM
- GI50 (OVCAR-8 ovarian): 29.8 nM
- TGI (OVCAR-8 ovarian): 187 nM
- GI50 (NCI-H460 lung): 34.1 nM
- TGI (NCI-H460 lung): > 100000 nM
- GI50 (RXF 393 renal): 15.5 nM
- TGI (RXF 393 renal): > 100000 nM
- GI50 (OVCAR-5 ovarian): 35.7 nM
- TGI (OVCAR-5 ovarian): > 100000 nM
- GI50 (MOLT-4 leukemia): 25.4 nM
- TGI (MOLT-4 leukemia): > 100000 nM
- GI50 (NCI/ADR-RES ovarian): < 10 nM
- TGI (NCI/ADR-RES ovarian): 33.6 nM
- GI50 (HT29 colon): 16.4 nM
- TGI (HT29 colon): 52.9 nM
- GI50 (A549 NSCLC): 39 nM
- TGI (A549 NSCLC): > 100000 nM
- GI50 (MCF7 breast): 33.1 nM
- TGI (MCF7 breast): > 100000 nM
- GI50 (MDA-MB-435): < 10 nM
- TGI (MDA-MB-435): 14.9 nM
- GI50 (RPMI-8226 leukemia): 43.6 nM
- TGI (RPMI-8226 leukemia): > 100000 nM
- GI50 (EKVX NSCLC): 58.8 nM
- TGI (EKVX NSCLC): > 100000 nM
- GI50 (SF-295 CNS): < 10.6 nM
- GI50 (TK-10 renal): > 100000 nM
- TGI (TK-10 renal): > 100000 nM
- GI50 (UO-31 renal): 52.3 nM
- TGI (UO-31 renal): > 100000 nM
- GI50 (BT-549 breast): 38 nM
- TGI (BT-549 breast): > 100000 nM
- GI50 (HL-60(TB) leukemia): < 11 nM
- TGI (HL-60(TB) leukemia): 43.4 nM
- GI50 (COLO 205 colon): 22.3 nM
- TGI (COLO 205 colon): 58.3 nM
- GI50 (HS 578T breast): 25.2 nM
- TGI (HS 578T breast): > 100000 nM
- GI50 (SK-MEL-5 melanoma): 17.1 nM
- TGI (SK-MEL-5 melanoma): 145 nM
- GI50 (HOP-62 NSCLC): 38 nM
- TGI (HOP-62 NSCLC): > 100000 nM
- GI50 (SW-620 colon): < 10.6 nM
- TGI (SW-620 colon): > 100000 nM
- GI50 (U251 CNS): 15.1 nM
- TGI (U251 CNS): > 47000 nM
- GI50 (HCT-15 colon): < 11.6 nM
- GI50 (SR leukemia): < 10 nM
- TGI (SR leukemia): > 100000 nM
- GI50 (HCT-116 colon): < 13.5 nM
- TGI (HCT-116 colon): > 100000 nM
- GI50 (ACHN renal): 52.2 nM
- TGI (ACHN renal): > 100000 nM
- GI50 (MDA-MB-231 breast): 30.3 nM
- TGI (MDA-MB-231 breast): 3600 nM
- GI50 (KM12 colon): 31 nM
- TGI (KM12 colon): > 100000 nM
- GI50 (UACC-257 melanoma): > 100000 nM
- TGI (UACC-257 melanoma): > 100000 nM
- GI50 (SK-OV-3 ovarian): 33.5 nM
- TGI (SK-OV-3 ovarian): > 100000 nM
- GI50 (A498 renal): > 100000 nM
- TGI (A498 renal): > 100000 nM
- GI50 (MDA-MB-468 breast): 21.7 nM
- TGI (MDA-MB-468 breast): 69 nM
- GI50 (CCRF-CEM leukemia): 39.6 nM
- TGI (CCRF-CEM leukemia): > 100000 nM
- GI50 (786-0 renal): 45.1 nM
- TGI (786-0 renal): > 63300 nM
- GI50 (DU-145 prostate): 45.6 nM
- TGI (DU-145 prostate): > 100000 nM
- GI50 (SF-539 CNS): 11.7 nM
- TGI (SF-539 CNS): 42.6 nM
- GI50 (HCC-2998 colon): 25.7 nM
- TGI (HCC-2998 colon): > 100000 nM
- GI50 (PC-3 prostate): 40 nM
- TGI (PC-3 prostate): > 100000 nM
- GI50 (CAKI-1 renal): 14.5 nM
- TGI (CAKI-1 renal): > 100000 nM
- GI50 (SN12C renal): 37.2 nM
- TGI (SN12C renal): > 100000 nM
- GI50 (NCI-H522 lung): < 10 nM
- TGI (NCI-H522 lung): 47.3 nM
- GI50 (NCI-H23 lung): 42.6 nM
- TGI (NCI-H23 lung): > 100000 nM
- GI50 (SNB-19 CNS): 54.2 nM
- TGI (SNB-19 CNS): > 100000 nM
- GI50 (SF-268 CNS): 354 nM
- TGI (SF-268 CNS): > 100000 nM
- GI50 (OVCAR-4 ovarian): 1670 nM
- TGI (OVCAR-4 ovarian): > 100000 nM
- GI50 (K-562 leukemia): < 10 nM
- TGI (K-562 leukemia): > 100000 nM
- GI50 (OVCAR-3 ovarian): 19.1 nM
- TGI (OVCAR-3 ovarian): 37800 nM

— PubChem BioAssay (NCI)
